Laboratory results as given in EP0640594A1, “Hydantoin derivative as metalloprotease inhibitor” (FUJIREBIO INC., priority 1993, dated 1995).

Experiments:
NEP = target: T1, NEP (Rattus norvegicus, UniProt P07861); assay: in vitro inhibitory activity on NEP; type: biochemical; conditions: NEP from kidneys of male SD rats; 0.4 mM glutaryl-Ala-Ala-Phe-4-methoxy-β-naphthylamide, pH 7.4, 37°C, 1 hour
T1 construct: The fractions with the NEP activity were collected, and was used as the enzyme source for the test; from tissue; host or cells: kidneys of male SD rats
T1 sequence (P07861 1-750): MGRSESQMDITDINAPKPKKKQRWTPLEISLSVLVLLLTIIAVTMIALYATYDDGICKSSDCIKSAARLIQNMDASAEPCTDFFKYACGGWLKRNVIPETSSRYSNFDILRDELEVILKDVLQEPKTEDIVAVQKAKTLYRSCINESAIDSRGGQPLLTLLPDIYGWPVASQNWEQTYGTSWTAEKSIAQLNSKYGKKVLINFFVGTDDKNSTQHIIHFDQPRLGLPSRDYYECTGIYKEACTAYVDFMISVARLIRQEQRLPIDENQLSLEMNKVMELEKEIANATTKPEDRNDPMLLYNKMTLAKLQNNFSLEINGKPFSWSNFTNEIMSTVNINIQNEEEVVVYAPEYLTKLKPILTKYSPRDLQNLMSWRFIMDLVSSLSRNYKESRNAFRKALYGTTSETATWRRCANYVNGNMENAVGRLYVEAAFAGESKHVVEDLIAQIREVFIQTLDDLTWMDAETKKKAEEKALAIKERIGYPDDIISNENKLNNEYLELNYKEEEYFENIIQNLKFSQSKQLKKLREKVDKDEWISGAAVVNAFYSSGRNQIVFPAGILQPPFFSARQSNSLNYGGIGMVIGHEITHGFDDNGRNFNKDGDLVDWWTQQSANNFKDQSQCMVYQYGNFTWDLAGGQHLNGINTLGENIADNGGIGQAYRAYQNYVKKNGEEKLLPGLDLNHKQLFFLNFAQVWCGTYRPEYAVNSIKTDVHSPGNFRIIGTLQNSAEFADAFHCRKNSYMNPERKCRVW
Method: NEP was prepared as follows in accordance with the process as described in Peptide, 9, 173 (1988). Kidneys of male SD rats were homogenized with 10 times by volume of a tris/HCl buffer solution (pH 7.0) containing mannitol and magnesium chloride. The homogenate was centrifuged (700 × g) to give a supernatant liquid. To the supernatant liquid was added n-octyl-β-D-glucoside in an amount to give a final concentration of 1 %, followed by stirring at 4°C for 1 hour, thereby solubilizing the enzyme. The solution was dialyzed against 5 mM HEPES/0.1% Triton (pH 7.4). The inner liquid was applied to a DE-52 column (2.5 cm i.d. × 15 cm) equilibrated with 5 mM HEPES/0.1% Triton (pH 7.4). The column was eluted with 500 ml of a NaCl solution having a linear concentration gradient of 0-300 mM. The fractions with the NEP activity were collected, and was used as the enzyme source for the test.
The inhibitory activity on NEP was measured according to the method described in Biochemistry, 20, 4942 (1981). That is, 250 µl of a 50 mM tris/HCl buffer solution (pH 7.4) containing 0.4 mM of glutaryl-Ala-Ala-Phe-4-methoxy-β-naphthylamide, 0.25 unit/ml of leucine aminopeptidase, a predetermined amount of the sample compound and NEP was prepared and the reaction was carried out at 37°C for 1 hour. The amount of 4-methoxy-β-naphthylamide produced by the NEP activity was measured to determine the inhibitory activity.

ACE = ACE (Homo sapiens, UniProt P12821); assay: in vitro inhibitory activity on ACE; type: biochemical; conditions: 0.016 unit/ml ACE; 2.0 mM hippuryl-L-histidyl-L-leucine, pH 8.4, 37°C, 30 minutes
Method: The inhibitory activity on ACE was measured according to the method described in Biochem. Pharmacolo., 20, 1637 (1971). That is, a 100 mM boric acid/sodium carbonate buffer solution (pH 8.4) containing 2.0 mM of hippuryl-L-histidyl-L-leucine, 0.016 unit/ml of ACE, 0.8 M of NaCl, and a predetermined amount of the sample compound was prepared and the reaction was carried out at 37°C for 30 minutes. The amount of hippuric acid produced by the ACE activity was measured to determine the inhibitory activity.

ACE, sequence (P12821 30-1306, species assumed): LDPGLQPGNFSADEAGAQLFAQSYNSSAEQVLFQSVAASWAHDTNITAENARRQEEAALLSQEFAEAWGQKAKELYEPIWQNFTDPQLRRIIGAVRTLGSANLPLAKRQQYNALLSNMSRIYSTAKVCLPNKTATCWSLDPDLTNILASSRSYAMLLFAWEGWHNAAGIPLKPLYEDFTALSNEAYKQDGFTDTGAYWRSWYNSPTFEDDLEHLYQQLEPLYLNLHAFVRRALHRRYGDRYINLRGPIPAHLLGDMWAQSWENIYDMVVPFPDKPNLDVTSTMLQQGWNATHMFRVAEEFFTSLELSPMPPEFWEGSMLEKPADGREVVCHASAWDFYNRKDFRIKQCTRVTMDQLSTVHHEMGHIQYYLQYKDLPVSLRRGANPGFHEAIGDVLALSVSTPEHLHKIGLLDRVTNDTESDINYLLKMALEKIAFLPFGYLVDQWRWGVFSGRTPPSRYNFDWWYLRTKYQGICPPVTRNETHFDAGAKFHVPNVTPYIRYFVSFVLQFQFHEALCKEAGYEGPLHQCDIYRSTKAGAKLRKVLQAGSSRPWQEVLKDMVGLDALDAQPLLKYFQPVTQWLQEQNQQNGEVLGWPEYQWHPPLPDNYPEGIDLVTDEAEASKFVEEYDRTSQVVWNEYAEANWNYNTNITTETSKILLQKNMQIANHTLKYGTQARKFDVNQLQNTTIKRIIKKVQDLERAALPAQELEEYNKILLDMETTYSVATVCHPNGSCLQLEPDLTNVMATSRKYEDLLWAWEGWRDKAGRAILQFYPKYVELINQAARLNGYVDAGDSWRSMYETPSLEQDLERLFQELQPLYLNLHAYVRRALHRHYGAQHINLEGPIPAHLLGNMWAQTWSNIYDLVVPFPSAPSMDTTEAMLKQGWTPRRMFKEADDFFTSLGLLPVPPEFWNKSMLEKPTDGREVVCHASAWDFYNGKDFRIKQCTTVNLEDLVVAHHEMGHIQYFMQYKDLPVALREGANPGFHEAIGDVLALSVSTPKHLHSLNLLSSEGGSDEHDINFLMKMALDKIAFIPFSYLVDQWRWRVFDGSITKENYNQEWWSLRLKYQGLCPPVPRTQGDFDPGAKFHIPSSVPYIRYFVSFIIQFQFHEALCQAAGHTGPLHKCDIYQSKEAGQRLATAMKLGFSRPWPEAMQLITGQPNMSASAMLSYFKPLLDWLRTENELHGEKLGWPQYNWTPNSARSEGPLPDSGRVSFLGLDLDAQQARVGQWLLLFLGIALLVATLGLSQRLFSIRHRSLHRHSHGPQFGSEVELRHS

Row | Compound | IC50 (NEP) [nM] | IC50 (ACE) [nM]
1 | O=C1CN(C2CCCC2)C(=O)N1C(CS)Cc1ccccc1 (stereo not drawn) [Example 1, 1-cyclopentyl-3-(1-mercapto-3-phenyl-2-propyl)hydantoin] | 450 | –
2 | O=C1CN(C2CCCCC2)C(=O)N1C(CS)Cc1ccccc1 (stereo not drawn) [Example 3, 1-cyclohexyl-3-(1-mercapto-3-phenyl-2-propyl)hydantoin] | 250 | –
3 | O=C(O)CC1C(=O)N(C(CS)Cc2ccccc2)C(=O)N1C1CCCC1 (stereo not drawn) [Example 18, 5-(carboxymethyl)-1-cyclopentyl-3-(1-mercapto-3-phenyl-2-propyl)hydantoin] | 250 | –
4 | O=C(O)CCC1C(=O)N(C(CS)Cc2ccccc2)C(=O)N1C1CCCC1 (stereo not drawn) [Example 19, 5-(2-carboxyethyl)-1-cyclopentyl-3-(1-mercapto-3-phenyl-2-propyl)hydantoin] | 160 | –
5 | O=C(O)CN1CC(=O)N(C(CS)Cc2ccccc2)C1=O (stereo not drawn) [Example 20, 1-(carboxymethyl)-3-(1-mercapto-3-phenyl-2-propyl)hydantoin] | 230 | 5400
6 | CC(C)[C@@H](C(=O)O)N1CC(=O)N(C(CS)Cc2ccccc2)C1=O (stereo partly drawn) [Example 21, 1-[(1S)-1-carboxy-2-methylpropyl)-3-(1-mercapto-3-phenyl-2-propyl)hydantoin] | 52 | –
7 | O=C1CN(C2(C(=O)O)CCCCC2)C(=O)N1C(CS)Cc1ccccc1 (stereo not drawn) [Example 24, 1-(1-carboxycyclohexyl)-3-(1-mercapto-3-phenyl-2-propyl) hydantoin] | – | 5200
8 | C[C@@H](C(=O)O)N1CC(=O)N(C(CS)Cc2ccccc2)C1=O (stereo partly drawn) [Example 26, 1-[(1S)-1-carboxyethyl]-3-(1-mercapto-3-phenyl-2-propyl)hydantoin] | 170 | –
9 | O=C(O)[C@H](Cc1ccccc1)N1CC(=O)N(C(CS)Cc2ccccc2)C1=O (stereo partly drawn) [Example 27, 1-[(1S)-1-carboxy-2-phenylethyl]-3-(1-mercapto-3-phenyl-2-propyl)hydantoin] | 260 | –
10 | CC(C)C[C@@H](C(=O)O)N1CC(=O)N(C(CS)Cc2ccccc2)C1=O (stereo partly drawn) [Example 28, 1-[(1S)-1-carboxy-3-methylbutyl]-3-(1-mercapto-3-phenyl-2-propyl)hydantoin] | 220 | –
11 | CCC(C)[C@@H](C(=O)O)N1CC(=O)N(C(CS)Cc2ccccc2)C1=O (stereo partly drawn) [Example 29, 1-[(1S)-1-carboxy-2-methylbutyl]-3-(1-mercapto-3-phenyl-2-propyl)hydantoin] | 56 | –
12 | O=C(O)CN1C(=O)N(C(CS)Cc2ccccc2)C(=O)C12CCCCC2 (stereo not drawn) [Example 34] | – | 200
13 | CC(C)C1C(=O)N(C(CS)Cc2ccccc2)C(=O)N1CC(=O)O (stereo not drawn) [Example 36, 1-(carboxymethyl)-5-(1-methylethyl)-3-(1-mercapto-3-phenyl-2-propyl)hydantoin] | – | 3400
14 | CC1(C)C(=O)N(C(CS)Cc2ccccc2)C(=O)N1CC(=O)O (stereo not drawn) [Example 40, 1-(carboxymethyl)-5,5-dimethyl-3-(1-mercapto-3-phenyl-2-propyl)hydantoin] | – | 2400

Second part, the molecule after the results:

Row | IC50 (NEP) [nM] | IC50 (ACE) [nM] | Compound
15 | 460 | 460 | O=C(O)CN1C(=O)N(C(CS)Cc2ccccc2)C(=O)C12CCCC2 (stereo not drawn) [Example 41, 1-(carboxymethyl)-3-(1-mercapto-3-phenyl-2-propyl)hydantoin-5-spirocyclopentane]
16 | – | 1600 | CCC(C)C1C(=O)N(C(CS)Cc2ccccc2)C(=O)N1CC(=O)O (stereo not drawn) [Example 42, 5-(2-butyl)-1-(carboxymethyl)-3-(1-mercapto-3-phenyl-2-propyl)hydantoin]
17 | – | 1100 | CC(O)C1C(=O)N(C(CS)Cc2ccccc2)C(=O)N1CC(=O)O (stereo not drawn) [Example 43, 1-(carboxymethyl)-5-(1-hydroxyethyl)-3-(1-mercapto-3-phenyl-2-propyl)hydantoin]
18 | 99 | 680 | O=C(O)CN1C(=O)N(C(CS)Cc2ccccc2)C(=O)C12Cc1ccccc1C2 (stereo not drawn) [Example 44, 1-(carboxymethyl)-3-(1-mercapto-3-phenyl-2-propyl)hydantoin-5-spiro-2'-indane]
19 | 59 | – | O=C1CN(N2CCCCC2)C(=O)N1C(CS)Cc1ccccc1 (stereo not drawn) [Example 45, 3-(1-mercapto-3-phenyl-2-propyl)-1-piperidinylhydantoin]
20 | 110 | – | O=C1CN(N2CCOCC2)C(=O)N1C(CS)Cc1ccccc1 (stereo not drawn) [Example 46, 3-(1-mercapto-3-phenyl-2-propyl)-1-(4-morpholinyl)hydantoin]
21 | – | 300 | O=C(O)CN1C(=O)N(C(CS)Cc2ccccc2)C(=O)C12CCC2 (stereo not drawn) [Example 50, 1-(carboxymethyl)-3-(1-mercapto-3-phenyl-2-propyl)-hydantoin-5-spirocyclobutane]
22 | 560 | 370 | O=C(O)CN1C(=O)N(C(CS)Cc2ccccc2)C(=O)C1C1CCCC1 (stereo not drawn) [Example 51, 1-(carboxymethyl)-5-cyclopentyl-3-(1-mercapto-3-phenyl-2-propyl)hydantoin]
23 | 61 | 450 | O=C(O)CN1C(=O)N(C(CS)Cc2ccccc2)C(=O)C1c1ccccc1 (stereo not drawn) [Example 52, 1-(carboxymethyl)-5-phenyl-3-(1-mercapto-3-phenyl-2-propyl)hydantoin]
24 | 230 | – | O=C(O)CN1C(=O)N(C(CS)Cc2ccccc2)C(=O)C1C(c1ccccc1)c1ccccc1 (stereo not drawn) [Example 53, 1-(carboxymethyl)-5-(diphenylmethyl)-3-(1-mercapto-3-phenyl-2-propyl)hydantoin]
25 | 90 | – | O=C(O)CN1C(=O)N(C(CS)Cc2ccccc2)C(=O)C1c1ccc(O)cc1 (stereo not drawn) [Example 55, 1-(carboxymethyl)-5-(4-hydroxyphenyl)-3-(1-mercapto-3-phenyl-2-propyl)hydantoin]
26 | 6.5 | – | COc1ccc(C2C(=O)N(C(CS)Cc3ccccc3)C(=O)N2CC(=O)O)cc1 (stereo not drawn) [Example 56, 1-(carboxymethyl)-3-(1-mercapto-3-phenyl-2-propyl)-5-(4-methoxyphenyl)hydantoin]
27 | 28 | – | CC(C)Oc1ccc(C2C(=O)N(C(CS)Cc3ccccc3)C(=O)N2CC(=O)O)cc1 (stereo not drawn) [Example 58, 1-(carboxymethyl)-3-(1-mercapto-3-phenyl-2-propyl)-5-[4-(2-propyloxy)phenyl]hydantoin]
28 | 180 | – | O=C(O)CN1C(=O)N(C(CS)Cc2ccccc2)C(=O)C1C1c2ccccc2-c2ccccc21 (stereo not drawn) [Example 60, 1-(carboxymethyl)-5-(9-fluorenyl)-3-(1-mercapto-3-phenyl-2-propyl)hydantoin]
29 | – | 180 | CC(CS)N1C(=O)N(CC(=O)O)C2(CCCC2)C1=O (stereo not drawn) [Example 63, 1-(carboxymethyl)-3-(1-mercapto-2-propyl)hydantoin-5-spirocyclopentane]
30 | – | 1000 | CC(C)C(CS)N1C(=O)N(CC(=O)O)C2(CCCC2)C1=O (stereo not drawn) [Example 65, 1-(carboxymethyl)-3-(1-mercapto-3-methyl-2-butyl)hydantoin-5-spirocyclopentane]
31 | 700 | – | CC(C)CC(CS)N1C(=O)CN(CC(=O)O)C1=O (stereo not drawn) [Example 66, 1-(carboxymethyl)-3-(1-mercapto-4-methyl-2-pentyl)-hydantoin]
32 | 160 | 510 | CC(C)CC(CS)N1C(=O)N(CC(=O)O)C2(CCCC2)C1=O (stereo not drawn) [Example 67, 1-(carboxymethyl)-3-(1-mercapto-4-methyl-2-pentyl)hydantoin-5-spirocyclopentane]
33 | 400 | – | O=C(O)Cn1c(=O)n(C(CS)Cc2ccccc2)c(=O)n1C1CCCC1 (stereo not drawn) [Example 72, 1-(carboxymethyl)-2-cyclopentyl-4-(1-mercapto-3-phenyl-2-propyl)urazole]
